According to patent US20060148799A1, “Substituted p-phenyl carbamates” (Novo Nordisk A/S, priority 2003, published 2006):

Target: T1, Hormone-sensitive lipase (HSL) (Homo sapiens, UniProt Q05469)
T1 construct: made in house
T1 sequence (Q05469 1-1076): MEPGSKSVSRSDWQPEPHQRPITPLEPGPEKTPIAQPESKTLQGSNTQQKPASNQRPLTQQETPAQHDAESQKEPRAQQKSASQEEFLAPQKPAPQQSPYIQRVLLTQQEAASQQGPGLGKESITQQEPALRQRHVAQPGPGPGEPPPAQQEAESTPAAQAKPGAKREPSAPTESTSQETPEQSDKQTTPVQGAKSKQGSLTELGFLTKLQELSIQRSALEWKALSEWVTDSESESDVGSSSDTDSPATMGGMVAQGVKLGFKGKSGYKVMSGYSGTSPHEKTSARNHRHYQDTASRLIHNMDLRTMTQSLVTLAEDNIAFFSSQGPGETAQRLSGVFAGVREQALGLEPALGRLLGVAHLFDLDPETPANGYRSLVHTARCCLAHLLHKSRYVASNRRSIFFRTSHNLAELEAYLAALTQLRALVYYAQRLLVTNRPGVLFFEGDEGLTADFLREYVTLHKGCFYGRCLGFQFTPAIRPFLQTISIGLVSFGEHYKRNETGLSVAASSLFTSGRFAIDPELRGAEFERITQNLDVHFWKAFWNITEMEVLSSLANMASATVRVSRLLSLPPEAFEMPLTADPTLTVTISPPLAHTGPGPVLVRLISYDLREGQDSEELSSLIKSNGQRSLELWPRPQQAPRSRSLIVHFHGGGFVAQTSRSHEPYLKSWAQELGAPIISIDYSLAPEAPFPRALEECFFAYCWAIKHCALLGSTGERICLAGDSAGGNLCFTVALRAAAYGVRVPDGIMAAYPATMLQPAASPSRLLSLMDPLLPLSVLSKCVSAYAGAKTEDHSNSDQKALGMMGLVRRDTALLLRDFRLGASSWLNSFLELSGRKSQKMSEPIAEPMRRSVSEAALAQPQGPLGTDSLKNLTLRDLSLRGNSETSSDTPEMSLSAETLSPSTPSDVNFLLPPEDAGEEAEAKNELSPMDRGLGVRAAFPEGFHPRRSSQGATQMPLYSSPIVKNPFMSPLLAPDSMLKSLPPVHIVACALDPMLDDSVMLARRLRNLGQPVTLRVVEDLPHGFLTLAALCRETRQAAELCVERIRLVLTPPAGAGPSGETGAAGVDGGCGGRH
Assay: 3190.1: percent inhibition of hormone sensitive lipase at 10 μM (fluorochrome-labeled triacylglyceride emulsion)
Type: biochemical
Conditions: % activity relative to non-inhibited sample; 10 μM sample concentration; 30 min pre-incubation at 25° C., 120 min incubation at 37° C.; read-out: 3190.1 HSL_FL % ACTIVITY (%)
From the text: Materials. The Hormone-sensitive lipase was provided by Dr. Cecilia Holm, from Lund University Sweden or produced and purified by Novo Nordisk (NN) using the reagents and protocols used by Dr. Holm. The substrates used are: ^3H-labeled triolein (TO) from Amersham, Buckinghamshire, U.K. cat No. TRA191; 5-20 Ci/mmol dissolved in toluene, triolein (Sigma, Cat. No. T-1740), fluorochrome-labeled triacylglyceride (cis-octadec-9-enoic acid 2-[12-(7-nitrobenzo[1,2,5]oxadiazol-4-ylamino)dodecanoyloxy]-1-cis-octadec-9-enoyloxymethyl-ethyl ester) prepared by Novo Nordisk (NN) by conventional methods, and 1,3-(di[^3H]-stearin), 2-(PEG-Biotin)glycerol prepared in collaboration with Amersham Pharmacia Biotech, UK and described in WO 01/073442. Phosphatidyl choline (PC) and phosphatidyl inositol (PI) are from Sigma (St Luis Mo. cat. Nos. P-3556 and P-5954 respectively). All other reagents are of commercial grade and obtained from various commercial sources.
3190.1: Assay for determination of percent inhibition of hormone sensitive lipase by compound at 10 μM sample concentration.
A lipid emulsion with fluorochrome-labeled triacylglyceride and phospholipid is used as substrate with a standard concentration of highly purified HSL (12 μg/mL initial concentration corresponding to 600 ng/mL final concentration). BSA is added as product acceptor. The transfer of the fluorochrome from the lipid phase to the water (BSA) phase changes the fluorescent properties of the fluorochrome. The changes can be monitored on a fluorimeter with an excitation wavelength of 450 nm and an emission wavelength of 545 nm.
Compound and HSL (20 μL compound, 10 μL enzyme and 70 μL PED-BSA buffer) is pre-incubated for 30 min at 25° C. before addition of substrate (100 μL). Amount of formed product is measured after 120 min incubation at 37° C.
Results are given as percent activity relative to a non-inhibited sample (no compound).

SMILES	activity at 10 µM
CN(C(=O)Oc1ccc(NC(=O)c2ccc(CN3CCCCC3)cc2)cc1)c1ccccc1 [Example 1, Methyl-phenyl-carbamic acid 4-(4-piperidin-1-ylmethyl-benzoylamino)-phenyl ester]	4%
CN(C(=O)Oc1ccc(NC(=O)c2ccc(CN3CCOCC3)cc2)cc1)c1ccccc1 [Example 2, Methyl-phenyl-carbamic acid 4-(4-morpholin-4-ylmethyl-benzoylamino)-phenyl ester]	4%
CC1CCN(Cc2ccc(C(=O)Nc3ccc(OC(=O)N(C)c4ccccc4)cc3)cc2)CC1 [Example 3, Methyl-phenyl-carbamic acid 4-[4-(4-methyl-piperidin-1-ylmethyl)-benzoylamino]-phenyl ester]	2%
